Reference: US20250179057A1, “MEK IMMUNE ONCOLOGY INHIBITORS AND THERAPEUTIC USES THEREOF” (Immuneering Corporation, priority 2022, published 2025)
Counter-ions that a name gives are not always drawn.

Columns and labels:
[1] = Plasma stability, human plasma (K2EDTA); type: in vitro ADME; details: human plasma, 2 μM, anti-coagulant K2-EDTA; for T1/2 / half-life at 2 μM: 10 to 120 min; for % Remaining at T120: 120 min; for half-life at 2 μM: pH 7.4, read-out: T1/2
Procedure: (§1) Individual stock solutions of propantheline and lovastatin were prepared at 10 mM in DMSO and were further diluted to 2 mM with DMSO.
(§2) Frozen matrices (Balb/c mouse, Wistar Han rat, Beagle dog, and human plasma containing K2EDTA as anti-coagulant) were thawed and centrifuged at 3100 rpm for 10 minutes at 4° C. to remove particulates. The lipid layer was then removed, and the supernatant was transferred to a new tube without disturbing the pellet. After the matrices were incubated at 37° C. for at least 10 minutes, the pH of each matrix was adjusted to pH 7.4, using 10% phosphoric acid or 1N sodium hydroxide as necessary. Test and control article stock solutions were spiked (2 μL) into matrix (1.998 mL) and mixed to final assay concentration of […]. Duplicate 30-μL aliquots of spiked plasma were transferred to matrix tubes in 96-well plate immediately after spiking for timepoints of 0, 30, 60, 120, 240, and 360 minutes. These tubes were then incubated at 37° C. with shaking and at each timepoint, the corresponding tubes containing samples were quenched with 180 μL of cold acetonitrile containing the internal standards. The quenched samples were vortex-mixed briefly and stored refrigerated. After the final time point (360 minutes), the plates with all quenched samples were vortex-mixed for 10 minutes and then centrifuged at 3100 rpm for 10 minutes at 4° C. to sediment the precipitated protein. The supernatant (50 μL) was transferred to a clean 96-well plate and diluted with 100 μL of water. The plates were stored refrigerated until analysis.
(§3) Data Analysis: Peak area ratios for IS-normalized test article and control article counts were used to calculate the percent remaining relative to the time zero (T0) value. As appropriate, results were plotted and further analyzed to calculate half-life (T1/2) values.
(§4) Mean peak area ratios were used to calculate the % remaining relative to the T0 value:
(§5) In this study, human, cynomolgus monkey, beagle dog, wistar hannover rat, and balb/c plasma stability was determined. Table 28 describes the results of the human plasma stability at 2 μM concentration and anti-coagulant K2-EDTA from 10 to 120 min. Table 29 describes the results of the cynomolgus monkey plasma stability at 2 μM concentration and anti-coagulant K2-EDTA. Table 30 describes the results of the beagle dog plasma stability at 2 μM concentration and anti-coagulant K2-EDTA. Table 31 describes the results of the wistar hannover rat plasma stability at 2 μM concentration and anti-coagulant K2-EDTA. Table 32 describes the results of the balb/c plasma stability at 2 μM concentration and anti-coagulant K2-EDTA.

[2] = Plasma stability, beagle dog plasma (K2EDTA); type: in vitro ADME; details: beagle dog plasma, 2 μM, anti-coagulant K2-EDTA; for % Remaining at T120: 120 min; for half-life at 2 μM: pH 7.4, read-out: T1/2
Procedure: as §1, §2, §3, §4, §5

[3] = Plasma stability, rat plasma (Wistar Han / wistar hannover; Table 5 head SD Rat); type: in vitro ADME; details: wistar hannover rat plasma, 2 μM, anti-coagulant K2-EDTA; for % Remaining at T120: 120 min; for half-life at 2 μM: pH 7.4, read-out: T1/2
Procedure: as §1, §2, §3, §4, §5

[4] = Plasma stability, mouse plasma (Balb/c; Table 5 head CD-1 Mouse); type: in vitro ADME; details: balb/c plasma, 2 μM, anti-coagulant K2-EDTA; for % Remaining at T120: 120 min; for half-life at 2 μM: mouse, pH 7.4, read-out: T1/2
Procedure: as §1, §2, §3, §4, §5

CYP2C9 = CYP2C9 (Homo sapiens, UniProt P11712); experiment: CYP450 panel inhibition in human liver microsomes, 2C9 (diclofenac); details: for CYP-2C9 (Diclofenac) mean percentage CYP inhibition: human liver microsomes, 10 μM, substrate diclofenac; for inhibition at 30 min, 10 µM: human, microsomes, pH 7.4
Text: The quenched samples were stored refrigerated.

human hepatocytes = experiment: Hepatocyte stability, human; type: in vitro ADME; details: 2 μM, 0.5 million cells/ml; for % Remaining At T120 / T1/2: 120 min
Procedure: (§6) In this study, human, cynomolgus monkey, beagle dog, wistar hannover rat, and balb/c mouse hepatocyle stability was determined.

[5] = test system: cynomolgus monkey hepatocytes; experiment: Hepatocyte stability, cynomolgus monkey; type: in vitro ADME; details: 2 μM, 0.5 million cells/ml
Procedure: as §6

beagle dog hepatocytes = experiment: Hepatocyte stability, beagle dog; type: in vitro ADME; details: 2 μM, 0.5 million cells/ml
Procedure: as §6

[6] = test system: wistar hannover rat hepatocytes; experiment: Hepatocyte stability, wistar hannover rat; type: in vitro ADME; details: 2 μM, 0.5 million cells/ml
Procedure: as §6

balb/c mouse hepatocytes = experiment: Hepatocyte stability, balb/c mouse; type: in vitro ADME; details: 2 μM, 0.5 million cells/ml
Procedure: as §6

Caco-2 cells = experiment: Caco-2 bidirectional permeability (absorption & efflux); details: Example 47

Sequence of CYP2C9 (P11712 whole entry): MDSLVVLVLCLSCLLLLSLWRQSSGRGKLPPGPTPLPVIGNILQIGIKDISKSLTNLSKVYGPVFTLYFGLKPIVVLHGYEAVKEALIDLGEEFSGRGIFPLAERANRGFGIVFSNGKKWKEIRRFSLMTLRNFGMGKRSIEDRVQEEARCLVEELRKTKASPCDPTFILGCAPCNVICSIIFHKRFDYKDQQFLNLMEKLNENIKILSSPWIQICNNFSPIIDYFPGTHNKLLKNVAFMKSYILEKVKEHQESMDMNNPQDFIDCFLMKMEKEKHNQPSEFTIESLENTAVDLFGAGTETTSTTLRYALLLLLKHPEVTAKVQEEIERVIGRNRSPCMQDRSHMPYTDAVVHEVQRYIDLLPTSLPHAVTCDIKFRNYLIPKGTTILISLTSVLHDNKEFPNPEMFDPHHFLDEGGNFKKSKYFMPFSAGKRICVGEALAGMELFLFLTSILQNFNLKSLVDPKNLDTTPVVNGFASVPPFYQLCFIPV

CNS(=O)(=O)Nc1cccc(Cc2c(CN3CCNCC3)c3cc(F)c(OC(=O)N(C)C)cc3oc2=O)c1F [Compound 134]
T1/2 [1]: >2 h
% Remaining at T120 [1]: 107.8%
T1/2 [2]: 10.4 h
% Remaining at T120 [2]: 89.9%
T1/2 [3]: 21.15 h
% Remaining at T120 [3]: 95.2%
T1/2 [4]: 46.85 h
% Remaining at T120 [4]: 100.2%
CYP-2C9 (Diclofenac) mean percentage CYP inhibition (CYP2C9): 20.5%
CLint (L/hr/kg) (human hepatocytes): 0.148 L/h/kg
CLint (mL/min/kg) (human hepatocytes): 2.46 mL/min/kg
% Remaining At T120 (human hepatocytes): 94.7%
T1/2 (human hepatocytes): 25.35 h
% Remaining At T120 [5]: 78.5%
CLint (L/hr/kg) [5]: 0.980 L/h/kg
CLint (mL/min/kg) [5]: 16.3 mL/min/kg
T1/2 [5]: 5.73 h
% Remaining At T120 (beagle dog hepatocytes): 74.7%
CLint (L/hr/kg) (beagle dog hepatocytes): 1.57 L/h/kg
CLint (mL/min/kg) (beagle dog hepatocytes): 26.1 mL/min/kg
T1/2 (beagle dog hepatocytes): 4.75 h
% Remaining At T120 [6]: 59.8%
CLint (L/hr/kg) [6]: 1.39 L/h/kg
CLint (mL/min/kg) [6]: 23.1 mL/min/kg
T1/2 [6]: 2.7 h
% Remaining At T120 (balb/c mouse hepatocytes): 70.2%
CLint (L/hr/kg) (balb/c mouse hepatocytes): 4.18 L/h/kg
CLint (mL/min/kg) (balb/c mouse hepatocytes): 69.7 mL/min/kg
T1/2 (balb/c mouse hepatocytes): 3.92 h
A − B Permeability Ranking (Caco-2 cells): Higher
Mean Efflux Ratio (Caco-2 cells): 2.01
Mean Papp A − B (10^−6 cm/s) (Caco-2 cells): 3.99 10^−6 cm/s
Mean Papp B − A (10^−6 cm/s) (Caco-2 cells): 8.08 10^−6 cm/s

CCCS(=O)(=O)Nc1cccc(Cc2c(CN3CCNCC3)c3cc(Cl)c(OC(=O)N(C)C)cc3oc2=O)c1F [Compound 167]
T1/2 [1]: 15.8 h
% Remaining at T120 [1]: 84.6%
T1/2 [2]: >2 h
% Remaining at T120 [2]: 106.2%
T1/2 [3]: >2 h
% Remaining at T120 [3]: 106.9%
T1/2 [4]: >2 h
% Remaining at T120 [4]: 100.5%
CYP-2C9 (Diclofenac) mean percentage CYP inhibition (CYP2C9): 71.8%
CLint (L/hr/kg) (human hepatocytes): 1.67 L/h/kg
CLint (mL/min/kg) (human hepatocytes): 27.9 mL/min/kg
% Remaining At T120 (human hepatocytes): 53.8%
T1/2 (human hepatocytes): 2.23 h
% Remaining At T120 [5]: 29.0%
CLint (L/hr/kg) [5]: 5.02 L/h/kg
CLint (mL/min/kg) [5]: 83.7 mL/min/kg
T1/2 [5]: 1.12 h
% Remaining At T120 (beagle dog hepatocytes): 17.7%
CLint (L/hr/kg) (beagle dog hepatocytes): 9.31 L/h/kg
CLint (mL/min/kg) (beagle dog hepatocytes): 155 mL/min/kg
T1/2 (beagle dog hepatocytes): 0.8 h
% Remaining At T120 [6]: 31.0%
CLint (L/hr/kg) [6]: 3.16 L/h/kg
CLint (mL/min/kg) [6]: 52.6 mL/min/kg
T1/2 [6]: 1.18 h
% Remaining At T120 (balb/c mouse hepatocytes): 52.5%
CLint (L/hr/kg) (balb/c mouse hepatocytes): 7.61 L/h/kg
CLint (mL/min/kg) (balb/c mouse hepatocytes): 127 mL/min/kg
T1/2 (balb/c mouse hepatocytes): 2.15 h
A − B Permeability Ranking (Caco-2 cells): Lower
Mean Efflux Ratio (Caco-2 cells): 23.2
Mean Papp A − B (10^−6 cm/s) (Caco-2 cells): 0.845 10^−6 cm/s
Mean Papp B − A (10^−6 cm/s) (Caco-2 cells): 19.6 10^−6 cm/s

CCN(C)Cc1c(Cc2cccc(NS(=O)(=O)NC)c2Cl)c(=O)oc2cc(OC(=O)N(C)C)ccc12 [Compound 245, 3-(2-chloro-3-((N-methylsulfamoyl)amino)benzyl)-4-((ethyl(methyl)amino)methyl)-2-oxo-2H-chromen-7-yl dimethylcarbamate]
% Remaining at T120 [1]: 106.8%
half-life at 2 μM [1]: > 2 h
% Remaining at T120 [2]: 104.1%
half-life at 2 μM [2]: > 2 h
half-life at 2 μM [3]: 32.2 h
% Remaining at T120 [3]: 96.6%
% Remaining at T120 [4]: 81.9%
half-life at 2 μM [4]: 7.98 h
inhibition at 30 min, 10 µM (CYP2C9): 25.8%
% Remaining At T120 (human hepatocytes): 13.9%
% Remaining At T120 [5]: 3.3%
% Remaining At T120 (beagle dog hepatocytes): 23.4%
% Remaining At T120 [6]: 15.7%
% Remaining At T120 (balb/c mouse hepatocytes): 52.8%
A − B Permeability Ranking (Caco-2 cells): Higher

CNS(=O)(=O)Nc1cccc(Cc2c(CN3CCNCC3)c3ccc(OC(=O)N(C)C)cc3oc2=O)c1Cl [Compound 246, 3-(2-chloro-3-((N-methylsulfamoyl)amino)benzyl)-2-oxo-4-(piperazin-1-ylmethyl)-2H-chromen-7-yl dimethylcarbamate hydrochloride]
% Remaining at T120 [1]: 105.7%
half-life at 2 μM [1]: > 2 h
% Remaining at T120 [2]: 100.2%
half-life at 2 μM [2]: 60.5 h
half-life at 2 μM [3]: > 2 h
% Remaining at T120 [3]: 99.3%
% Remaining at T120 [4]: 94.5%
half-life at 2 μM [4]: 18.5 h
inhibition at 30 min, 10 µM (CYP2C9): 19.4%
% Remaining At T120 (human hepatocytes): 95.3%
% Remaining At T120 [5]: 81.4%
% Remaining At T120 (beagle dog hepatocytes): 79.6%
% Remaining At T120 [6]: 63.0%
% Remaining At T120 (balb/c mouse hepatocytes): 73.6%
A − B Permeability Ranking (Caco-2 cells): Higher

CNS(=O)(=O)Nc1cccc(Cc2c(CN3CCNCC3)c3cc(Cl)c(OC(=O)N(C)C)cc3oc2=O)c1Cl [Compound 256, 6-chloro-3-(2-chloro-3-((N-methylsulfamoyl)amino)benzyl)-2-oxo-4-(piperazin-1-ylmethyl)-2H-chromen-7-yl dimethylcarbamate hydrochloride]
% Remaining at T120 [1]: 84.8%
half-life at 2 μM [1]: 14 h
% Remaining at T120 [2]: 99.4%
half-life at 2 μM [2]: > 2 h
half-life at 2 μM [3]: 179 h
% Remaining at T120 [3]: 97.2%
% Remaining at T120 [4]: 86.8%
half-life at 2 μM [4]: 9.77 h
inhibition at 30 min, 10 µM (CYP2C9): 36.5%
% Remaining At T120 (human hepatocytes): 91.4%
% Remaining At T120 [5]: 53.9%
% Remaining At T120 (beagle dog hepatocytes): 62.8%
% Remaining At T120 [6]: 45.7%
% Remaining At T120 (balb/c mouse hepatocytes): 65.6%
A − B Permeability Ranking (Caco-2 cells): Higher

CCS(=O)(=O)Nc1cccc(Cc2c(CN3CCNCC3)c3cc(Cl)c(OC(=O)N(C)C)cc3oc2=O)c1Cl [Compound 257, 6-chloro-3-(2-chloro-3-(ethylsulfonamido)benzyl)-2-oxo-4-(piperazin-1-ylmethyl)-2H-chromen-7-yl dimethylcarbamate hydrochloride]
% Remaining at T120 [1]: 96.3%
half-life at 2 μM [1]: 173 h
% Remaining at T120 [2]: 100.9%
half-life at 2 μM [2]: > 2 h
half-life at 2 μM [3]: 16.9 h
% Remaining at T120 [3]: 91.5%
% Remaining at T120 [4]: 87.5%
half-life at 2 μM [4]: 9.77 h
inhibition at 30 min, 10 µM (CYP2C9): 53.7%
% Remaining At T120 (human hepatocytes): 89.1%
% Remaining At T120 [5]: 62.8%
% Remaining At T120 (beagle dog hepatocytes): 47.8%
% Remaining At T120 [6]: 45.4%
% Remaining At T120 (balb/c mouse hepatocytes): 66.7%
A − B Permeability Ranking (Caco-2 cells): Higher

CNS(=O)(=O)Nc1cccc(Cc2c(CN(C)C)c3ccc(OC(=O)N(C)C)cc3oc2=O)c1Cl [Compound 274, 3-(2-chloro-3-((N-methylsulfamoyl)amino)benzyl)-4-((dimethylamino)methyl)-2-oxo-2H-chromen-7-yl dimethylcarbamate]
% Remaining at T120 [1]: 121.2%
half-life at 2 μM [1]: > 2 h
% Remaining at T120 [2]: 100.5%
half-life at 2 μM [2]: > 2 h
half-life at 2 μM [3]: 42.3 h
% Remaining at T120 [3]: 97.7%
% Remaining at T120 [4]: 92.7%
half-life at 2 μM [4]: 126 h
inhibition at 30 min, 10 µM (CYP2C9): 17.1%
% Remaining At T120 (human hepatocytes): 47.5%
% Remaining At T120 [5]: 24.5%
% Remaining At T120 (beagle dog hepatocytes): 51.9%
% Remaining At T120 [6]: 34.9%
% Remaining At T120 (balb/c mouse hepatocytes): 64.3%
A − B Permeability Ranking (Caco-2 cells): Higher
